Consider 37 compounds from patent publication US20230339886A1 (University of Florida Research Foundation, Incorporated, priority 2020, published 2023).

Molecules are shown by their SMILES. Some results are limits rather than exact numbers.

The target in one experiment is T1, REV-ERBα LBD (human; residues 281-614 Δ324-422) (Homo sapiens, UniProt P20393, DEL324-422).
T1 construct: 6×Histag-REV-ERBα LBD (human; residues 281-614 Δ324-422); made in house; host or cells: Escherichia coli
T1 sequence (P20393 with tags, fused parts or gaps DEL324-422): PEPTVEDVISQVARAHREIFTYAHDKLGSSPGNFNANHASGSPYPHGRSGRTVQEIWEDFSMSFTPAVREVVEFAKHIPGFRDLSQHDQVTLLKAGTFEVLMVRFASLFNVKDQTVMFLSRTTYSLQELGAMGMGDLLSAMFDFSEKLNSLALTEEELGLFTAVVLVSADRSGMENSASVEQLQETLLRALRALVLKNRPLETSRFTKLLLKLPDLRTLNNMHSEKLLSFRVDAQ
T1 sequence (Q9Y618 2335-2356 partner limits assumed): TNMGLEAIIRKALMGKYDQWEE
The experiment is described as follows: TR-FRET corepressor interaction assay (REV-ERBα LBD, FITC-SMRT peptide). In kind it is biochemical. Particulars: FITC-SMRT peptide, read-out: REVERBα agonism (EC50 class, FRET assay). In a few lines: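 Compound serial dilutions (in DMSO, triplicate) incubated 2 h at 4 °C; Tb donor excited at 340 nm, emission read at 495 nm and FITC acceptor at 520 nm. TR-FRET ratio (520/495 nm) plotted against ligand concentration and fitted to a sigmoidal dose-response curve.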
(In TR-FRET formats the signal depends on donor and acceptor labels being close together.)
By EC50 is commonly meant the concentration that produces a half-maximal response. In the case of `CC(C)(C)Cn1cc([C@H](NS(=O)(=O)C2CC2)C(F)(F)F)c2ccc(-c3ccccc3C(F)(F)F)c(F)c21` [Example 536, (S)—N-(2,2,2-trifluoro-1-(7-fluoro-1-neopentyl-6-(2-(trifluoromethyl)phenyl)-1H-indol-3-yl)ethyl)cyclopropanesulfonamide], the EC50 is less than 500 nM.
Still for that read-out and setting: the same measure for `CC(C)(C)Cn1cc([C@H](NS(=O)(=O)C2CCC2)C(F)(F)F)c2ccc(C3CCOCC3)cc21` [Example 519, (S)—N-(2,2,2-trifluoro-1-(1-neopentyl-6-(tetrahydro-2H-pyran-4-yl)-1H-indol-3-yl)ethyl)cyclobutanesulfonamide]: less than 500 nM; for `CC(C)(C)Cn1cc([C@H](NS(=O)(=O)C2CCC2)C(F)F)c2ccc(-c3ccccc3C(F)(F)F)cc21` [Example 513, (S)—N-(2,2-difluoro-1-(1-neopentyl-6-(2-(trifluoromethyl)phenyl)-1H-indol-3-yl)ethyl)cyclobutanesulfonamide]: less than 500 nM; for `CC(C)(C)Cn1cc([C@H](NS(=O)(=O)C2CCC2)C(F)F)c2ccc(-c3c(F)cccc3C(F)(F)F)cc21` [Example 527, (S)—N-(2,2-difluoro-1-(6-(2-fluoro-6-(trifluoromethyl)phenyl)-1-neopentyl-1H-indol-3-yl)ethyl)cyclobutanesulfonamide]: less than 500 nM.
Same read-out and setting: the same measure for `N#Cc1cccc(F)c1-c1ccc2c([C@H](NS(=O)(=O)C3CCC3)C(F)(F)F)cn(C3CCOCC3)c2c1` [Example 526, (S)—N-(1-(6-(2-cyano-6-fluorophenyl)-1-(tetrahydro-2H-pyran-4-yl)-1H-indol-3-yl)-2,2,2-trifluoroethyl)cyclobutanesulfonamide]: less than 500 nM; for `CC(C)Cn1cc(C(CS(=O)(=O)C2CC2)C(F)(F)F)c2ccc(-c3ccccc3C(F)(F)F)cc21` (stereo not shown) [Example 498, 3-(3-(cyclopropylsulfonyl)-1,1,1-trifluoropropan-2-yl)-1-isobutyl-6-(2-(trifluoromethyl)phenyl)-1H-indole]: 500 to 3000 nM.
`CC(C)(C)Cn1cc([C@H](NS(=O)(=O)C2CC(F)C2)C(F)(F)F)c2ccc(-c3ccccc3C(F)(F)F)cc21` (stereo partly drawn) [Example 437, (S)-3-fluoro-N-(2,2,2-trifluoro-1-(1-neopentyl-6-(2-(trifluoromethyl)phenyl)-1H-indol-3-yl)ethyl)cyclobutane-1-sulfonamide]: the EC50 fell in the range of 500 to 3000 nM.
The same measure, in the same setting: the same measure for `CC(C)(C)Cc1cn(CCNS(=O)(=O)C2CC2)c2ccc(-c3ccc(C(F)(F)F)cc3C#N)cc12` [Example 487, N-(2-(5-(2-cyano-4-(trifluoromethyl)phenyl)-3-neopentyl-1H-indol-1-yl)ethyl)cyclopropanesulfonamide]: 500 to 3000 nM.
Still for that read-out and setting: the same measure for `CC(C)(C)Cn1cc([C@H](NS(=O)(=O)C2CCC2)C(F)F)c2ccc(-c3ccccc3C(F)(F)F)c(F)c21` [Example 552, (S)—N-(2,2-difluoro-1-(7-fluoro-1-neopentyl-6-(2-(trifluoromethyl)phenyl)-1H-indol-3-yl)ethyl)cyclobutanesulfonamide]: less than 500 nM.
Same read-out and setting: the same measure for `CC1(Cn2cc([C@H](NS(=O)(=O)C3CCC3)C(F)(F)F)c3ccc(-c4ccccc4C(F)(F)F)cc32)CC1` [Example 512, (S)—N-(2,2,2-trifluoro-1-(1-((1-methylcyclopropyl)methyl)-6-(2-(trifluoromethyl)phenyl)-1H-indol-3-yl)ethyl)cyclobutanesulfonamide]: less than 500 nM; for `CC(C)(C)Cn1cc([C@H](NS(=O)(=O)C2CCC2)C(F)(F)F)c2ccc(C3CC3)cc21` [Example 501, (S)—N-(1-(6-cyclopropyl-1-neopentyl-1H-indol-3-yl)-2,2,2-trifluoroethyl)cyclobutanesulfonamide]: less than 500 nM.

Staying with this experiment, now noted: Table 2, read-out: REVERBα agonism (EC50 class, FRET assay).
As to `CCC(=O)n1cc(CNS(=O)(=O)N(C)C)c2ccc(-c3ccncc3)cc21` [Example 187, 1-(3-{[(dimethylsulfamoyl)amino]methyl}-6-(pyridin-4-yl)-1H-indol-1-yl)propan-1-one], the EC50 is greater than 3000 nM.
As to `CC(C)Cn1cc([C@H](NS(=O)(=O)C2CC2)C(F)(F)F)c2cc(F)c(-c3ccn[nH]3)cc21` [Example 377, (S)—N-(2,2,2-trifluoro-1-(5-fluoro-1-isobutyl-6-(1H-pyrazol-5-yl)-1H-indol-3-yl)ethyl)cyclopropanesulfonamide], the concentration giving a half-maximal response (EC50) was in the range of 500 to 3000 nM.
Still for that read-out and setting: the figure for `CC(C)S(=O)(=O)NCCn1cc(CC(C)(C)C)c2cc(Br)ccc21` [Example 171, N-(2-(5-bromo-3-neopentyl-1H-indol-1-yl)ethyl)propane-2-sulfonamide] is 500 to 3000 nM; for `CC(C)Cn1cc(C(C)NS(=O)(=O)C2CC2)c2ccc(-c3ccccc3C(F)(F)F)cc21` (stereo not shown) [Example 204, N-(1-(1-isobutyl-6-(2-(trifluoromethyl)phenyl)-1H-indol-3-yl)ethyl)cyclopropanesulfonamide] it is less than 500 nM.
Same read-out and setting: the same measure for `Cc1ccc(-c2ccc3c(CCS(=O)(=O)C4CC4)cn(CC(C)(C)C)c3c2)c(C(F)(F)F)c1` [Example 408, 3-(2-(cyclopropylsulfonyl)ethyl)-6-(4-methyl-2-(trifluoromethyl)phenyl)-1-neopentyl-1H-indole]: less than 500 nM; for `CC(C)(C)Cc1cn(CCNS(=O)(=O)C2CC2)c2ccc(-c3cncc4ccccc34)cc12` [Example 218, N-(2-(5-(isoquinolin-4-yl)-3-neopentyl-1H-indol-1-yl)ethyl)cyclopropane-sulfonamide]: 500 to 3000 nM.
The same measure, in the same setting: the same measure for `Cc1cc2c(cc1F)c([C@H](NS(=O)(=O)C1CC1)C(F)(F)F)cn2CC(C)C` [Example 312, (S)—N-(2,2,2-trifluoro-1-(5-fluoro-1-isobutyl-6-methyl-1H-indol-3-yl)ethyl)cyclopropanesulfonamide]: less than 500 nM; for `CC(C)Cn1cc(CCN(C)S(=O)(=O)N(C)C)c2ccc(-c3ccncc3)cc21` [Compound 5]: less than 500 nM.
For `CC(C)Cn1cc([C@H]2C[C@H]2NS(=O)(=O)C(C)C)c2ccc(Br)cc21` [Compound 257], the EC50 was 500 to 3000 nM.
The same measure, in the same setting: the figure for `CC(C)Cn1cc([C@H](NS(=O)(=O)N(C)C)C(F)(F)F)c2cc(F)c(-c3ccccc3Cl)cc21` [Example 326, {[(1S)-1-[6-(2-chlorophenyl)-5-fluoro-1-(2-methylpropyl)-1H-indol-3-yl]-2,2,2-trifluoroethyl]sulfamoyl}dimethylamine] is less than 500 nM; for `CC(C)(C)Cc1cn(CCNS(=O)(=O)C2CC2)c2ccc(-c3ccc(F)c(F)c3)cc12` [Compound 226] it is 500 to 3000 nM.
On to `CC(C)Cn1cc(-c2cccc(CNS(=O)(=O)C(C)C)c2)c2ccc(-c3ccccc3)cc21` [Example 86, N-(3-(1-isobutyl-6-phenyl-1H-indol-3-yl)benzyl)propane-2-sulfonamide], for which the EC50 lay in the range of 500 to 3000 nM.
The same measure, in the same setting: the same measure for `CC(C)Cn1cc(CCNS(=O)(=O)N(C)C)c2ccc(C3(O)CCC3)cc21` [Example 107, 1-(3-{2-[(dimethylsulfamoyl)amino]ethyl}-1-(2-methylpropyl)-1H-indol-6-yl)cyclobutan-1-ol]: 500 to 3000 nM; for `CC(C)Cn1cc(CN(C)S(=O)(=O)N(C)C)c2ccc(-c3ccncc3)cc21` [Compound 246]: 500 to 3000 nM; for `CC(C)(C)Cn1cc(CCNS(=O)(=O)C2CC2)c2cc(F)c(-c3ccccc3C(F)(F)F)cc21` [Compound 287]: less than 500 nM.
The same measure, in the same setting: the figure for `CC(C)S(=O)(=O)NCCc1cn(CC(C)(C)C)c2cc(-c3ccncc3Cl)c(F)cc12` [Compound 290] is less than 500 nM.
On the same count and under the same terms, the same measure for `CC(C)Cn1cc(CCNS(=O)(=O)N(C)C)c2ccc(-c3cccc(C#N)c3)cc21` [Example 59, N-{2-[6-(3-cyanophenyl)-1-(2-methylpropyl)-1H-indol-3-yl]ethyl}-N,N-dimethylsulfuric diamide]: less than 500 nM.
Regarding `CN(C)CCn1cc(CCNS(=O)(=O)N(C)C)c2ccc(Br)cc21` [Example 160, [2-(6-bromo-3-{2-[(dimethylsulfamoyl)amino]ethyl}-1H-indol-1-yl)ethyl]dimethylamine], the EC50 is greater than 3000 nM.
On the same count and under the same terms, the figure for `CC(C)Cn1cc(CC(N(C)S(=O)(=O)C(C)C)C(F)(F)F)c2ccc(-c3ccncc3)cc21` (stereo not shown) [Compound 274] is greater than 3000 nM; for `CN(C)S(=O)(=O)NCCc1cn(C2CC2)c2cc(-c3ccncc3)ccc12` [Example 134, N′-{2-[6-(pyridin-4-yl)-1-cyclopropyl-1H-indol-3-yl]ethyl}-N,N-dimethylsulfuric diamide] it is greater than 3000 nM; for `CC(C)Cn1cc(CCNS(=O)(=O)N(C)C)c2ccc(O)cc21` [Example 116, N-{2-[6-hydroxy-1-(2-methylpropyl)-1H-indol-3-yl]ethyl}-N,N-dimethylsulfuric diamide] it is greater than 3000 nM.
Still for that read-out and setting: the figure for `CC(C)(C)Cn1cc([C@H](NS(=O)(=O)C2CC2)C(F)(F)F)c2ccc(-c3cccnc3)cc21` [Example 383, (S)—N-(2,2,2-trifluoro-1-(1-neopentyl-6-(pyridin-3-yl)-1H-indol-3-yl)ethyl)cyclopropanesulfonamide] is 500 to 3000 nM.
On to `CC(C)S(=O)(=O)NCCc1cn(CC2CCCC2)c2cc(-c3ccncc3)ccc12` [Compound 272], for which the EC50 is less than 500 nM.
The same measure, in the same setting: the figure for `CN(C)S(=O)(=O)NCCc1c[nH]c2cc(-c3ccncc3)ccc12` [Compound 40, dimethyl({2-[6-(pyridin-4-yl)-1H-indol-3-yl]ethyl}sulfamoyl)amine] is greater than 3000 nM; for `CN(C)S(=O)(=O)NCCc1cn(CC2CCOC2)c2cc(-c3ccncc3)ccc12` (stereo not shown) [Compound 9] it is 500 to 3000 nM.
Same read-out and setting: the same measure for `CC(C)C(=O)n1cc(C(C)NS(=O)(=O)N(C)C)c2ccc(-c3ccccc3Cl)cc21` (stereo not shown) [Example 196, 1-[6-(2-chlorophenyl)-3-{1-[(dimethylsulfamoyl)amino]ethyl}-1H-indol-1-yl]-2-methylpropan-1-one]: less than 500 nM.
